Patent publication US10117946B2, “Self-assembling ultrashort peptides modified with bioactive agents by click chemistry” (Agency for Science, Technology and Research, priority 2012, dated 2018)
Several values for one entry are separate records, joined by “and”; a condition that tells them apart may be missing. Identical values can stand only once.

Key:
[1] = tested on: HeLa (cervical carcinoma) cells; test: Cytotoxicity, colorimetric microculture assay (MTS assay); format: cell-based, human; settings: 96 h exposure
Method: (§1) Cytotoxicity of all synthesized compounds was evaluated on two human derived cancer cell lines namely HeLa (cervical carcinoma) and SW480 (colon carcinoma). 4T1 mouse breast cancer cells were also used for evaluation. Cells were first treated with different concentrations of the test compounds and incubated for 96 h at 37° C. Subsequently, the cell viability was measured by means of a colorimetric microculture assay (MTS assay).
(§2) Human cervical carcinoma cell line HeLa, human colon carcinoma cell line SW480 and mouse breast cancer cell line 4T1 were purchased from the American Type Culture Collection (Manassas, Va., USA). The cell lines were cultured in DME medium (Biopolis shared facilities, A*STAR, SG) supplemented with 10% heat inactivated fetal bovine serum and 1% of mixture of penicillin and streptomycin (Invitrogen, CA, U.S.A). The cells were maintained in a 75 mL cell culture flask (Nunc) at 37° C. in a humidified incubator with 95% air and 5% CO2.
(§3) Cytotoxicity was determined by means of a colorimetric microculture assay (MTs assay, MTS=[…]) For this purpose, HeLa, SW480, and 4T1 cells were harvested from culture flasks by trypsinization and seeded into 96-well microculture plates in cell densities of 3.5×10^3 cells/well. The cells were allowed to attach for 8 h. Subsequently, cells were exposed to serial dilutions of the test compounds in 150 μL/well complete culture medium for 96 h. Then 25 uL of CellTiter 96® Aqueous one solution reagent was added to the cells, followed by incubation for 2 h at 37° C. After incubation, the absorbance was measured at a wavelength of 499 nm using a microplate reader. The quantity of vital cells was expressed in terms of T/C values in comparison to untreated control microcultures, and 50% inhibitory concentrations (IC50) were calculated from concentration-effect curves by a nonlinear curve fit using Origin Lab 7.5.

[2] = tested on: SW480 (colon carcinoma) cells; test: as above; format: cell-based, human; settings: 96 h exposure
Method: as §1, §2, §3

[3] = tested on: 4T1 mouse breast cancer cells; test: as above; format: cell-based; settings: 96 h exposure
Method: as §1, §2
Cytotoxicity was determined by means of a colorimetric microculture assay (MTs assay, MTS=[…]) For this purpose, HeLa, SW480, and 4T1 cells were harvested from culture flasks by trypsinization and seeded into 96-well microculture plates in cell densities of 3.5×10^3 cells/well. […] After incubation, the absorbance was measured at a wavelength of 499 nm using a microplate reader. […]

4T1 cells = test: Cell cycle analysis (propidium iodide, flow cytometry); format: cell-based, mouse; settings: 10 μM, 96 h
Method: (§4) To further characterize the in vitro efficacy of 3-6, cell cycle analysis and measurement of caspase activity was conducted after incubation with the drug candidates. […] Oxaliplatin coordinates to DNA nucleotides, preventing the cell from crossing the DNA damage check point. […] This is very close to the oxaliplatin control were about 55% of the cells were in a G2/M arrest. […] The fact that all compounds were associated with an increase in the G2/M phase proves that compound 3-6 is able to bind to DNA in the tested cells, although the effect is not as pronounced as in the oxaliplatin control.
(§5) Cells (3×10^6 cells) were seeded into 10 cm petridishes and allowed to recover for 24 h. The medium was exchanged to serum free DME medium and the cells were allowed to synchronize for 24 h. The medium was later changed to DME medium containing 10% heat inactivated fetal bovine serum and 1% of mixture of penicillin and streptomycin (Invitrogen, CA, U.S.A). Cells were exposed to 10 μM of the test compounds for 96 h. Control and treated cells were collected, washed with PBS, fixed in 70% ice-cold ethanol, and stored at −20° C. To determine cell cycle distributions, cells were transferred to a PBS solution, incubated with 10 μg/mL RNase A for 30 min at 37° C., and treated with 5 μg/mL propidium iodide for 30 min. Fluorescence of individual cells was measured by flow cytometry, […]

SW480 cells = test: as above; format: cell-based, human; settings: 10 μM, 96 h
Method: as §4, §5

[4] = tested on: 4T1 breast cancer tumor in BALB/c mice; test: In vivo therapeutic efficacy, intratumoral injection, tumor volume; set-up: species or system mouse; settings: for Tumor volume, Significant? vs. PBS, Day 14: Holm-Sidak, overall significance level 0.05, comparator PBS group
From the text: (§6) Female BALB/c mice were divided into four groups for treatment (PBS group and Ac-LIVAGK-NH2 (SEQ ID NO. 16 acylated and amidated) hydrogel group as negative controls, oxaliplatin as positive control and test compound 3 as a hybrid hydrogel with Ac-LIVAGK-NH2 (SEQ ID NO. 16 acylated and amidated)). Each group comprised of 9 mice. Tumour growth was initiated via a subcutaneous injection of 1 million 4T1 cells into the mouse flank. Seven days after cell injection, compound 3 was directly injected into the tumor using Ac-LIVAGK-NH2 (SEQ ID NO. 16 acylated and amidated), its parent peptide, as gel matrix. The same volume was accordingly injected into the other three groups. As a first dose 15 mg/kg oxaliplatin was used, which is equivalent to 44 mg/kg of compound 3. A re-injection was performed on day 21 of the experiment. The animals were sacrificed on day 28 and final tumor size was measured.
(§7) Adult female Balb/c mice used in this study (weight 20 g; aged 6-8 weeks) were provided by Biological Resource Center (BRC), A*Star, Biopolis, Singapore. For tumor establishment, 1×10^6 mouse 4T1 breast cancer cells were injected subcutaneously into the flank of Balb/c mice (designated as day 0). To investigate the effect of the mixture of Oxaliplatin and hydrogel, the tumor-inoculated animals were divided into 4 groups (n=9 per group) on day 7 post-tumor inoculation and received an intratumor injection of sample solutions: phosphate buffered saline (PBS), Ac-LIVAGK-NH2 (SEQ ID NO. 16 acylated and amidated) (12.5 mg/mL) oxaliplatin (15 mg/kg), 3 (44 mg/kg) and Ac-LIVAGK-NH2 (SEQ ID NO. 16 acylated and amidated) (12.5 mg/mL). 100 μL of each sample were injected directly into the tumor. The hydrogels were prepared prior to injection by dissolving the peptide in 1×PBS and vortexing for 1 min. The sample containing 3 was prepared in a similar manner; 3 was dissolved in 1×PBS and the resulting solution was added to the peptide and vortexed for 1 min. A solid hydrogel was observed about 10 min after sample preparation, to allow in situ gelation inside the tumor.
Tumor volume was determined by measurement with an electronic digital vernier caliper. Readings were taken once a week until day 28 post-tumor inoculation. The ellipsoid volume of the tumor (mm^3) was then calculated using the formula: Volume=(Width)×(Length)×(height)×π/6.
(§8) Data are represented as mean±SE. […] A P-value of <0.05 was considered to be statistically significant.

[5] = In vivo study, body weight comparison of treatment groups; set-up: species or system mouse
From the text: as §6
The same holds true for day 21 of the experiment. […] This was confirmed by a significant weight difference between the oxaliplatin group and the group treated with compound 3. Therefore, reinjection on day 21 involved only half the initial dose.
as §7, §8

[6] = Gelation ability in water (vortexing, left to stand overnight); format: physicochemical
Method: To test the gelation ability of compounds 3-8, they were dissolved in water by vortexing and left to stand overnight. […] In contrast, the alkyne-derived peptide P1 gelled in water at a concentration of 30 mg/mL, which is close to the minimal gelation concentration of its parent peptide SEQ ID NO 16 Ac-LIVAGK-NH2 (Ac-LK6-NH2). […] We assume, that the derivatization of the peptides with cisplatin or oxaliplatin and a bulky triazole group interferes with their self-assembly by changing the lipophilicity of the N-terminus of the peptide. However, stable hybrid gels could be formed with up to 40 wt % loading when the parent peptide was used as a matrix.

[7] = Holm-Sidak pairwise comparison, comparator Ac-LK6-NH2 hydrogel group
[8] = Holm-Sidak pairwise comparison, comparator PBS group
[9] = Holm-Sidak, 0.05, comparator Ac-LK6-NH2 hydrogel group
[10] = Holm-Sidak, 0.05, comparator PBS group
[11] = comparator Ac-LK6-NH2 hydrogel group

N.N.[Cl][Pt][Cl] [cisplatin]
IC50 [1]: 620 nM and 1000 nM
IC50 [2]: 4000 ± 2500 nM
IC50 [3]: 1500 ± 600 nM

O=C1[O][Pt]2([NH][C@@H]3CCCC[C@H]3[NH]2)[O]C1=O [oxaliplatin]
IC50 [1]: 2000 ± 800 nM
IC50 [2]: 500 nM and 470 nM
IC50 [3]: 1800 ± 500 nM
apoptotic cells (4T1 cells): about 30%
cells arrested in G2/M (4T1 cells): about 55%
apoptotic cells (SW480 cells): no apoptotic cells
cells arrested in G2/M (SW480 cells): about 80%
Tumor volume, Diff of Means vs. Ac-LK6-NH2, Day 14 [4, 7]: 101.218 mm^3
Tumor volume, Diff of Means vs. Ac-LK6-NH2, Day 28 [4, 7]: 1150.053 mm^3
Tumor volume, Diff of Means vs. LK6, Day 21 ([4]; Holm-Sidak pairwise comparison, comparator LK6 hydrogel group): 487.488 mm^3
Tumor volume, Diff of Means vs. PBS, Day 14 [4, 8]: 253.590 mm^3
Tumor volume, Diff of Means vs. PBS, Day 21 [4, 8]: 580.470 mm^3
Tumor volume, Diff of Means vs. PBS, Day 28 [4, 8]: 855.616 mm^3
Tumor volume, Significant? vs. Ac-LK6-NH2, Day 14 [4, 9]: No
Tumor volume, Significant? vs. Ac-LK6-NH2, Day 28 [4, 9]: Yes
Tumor volume, Significant? vs. LK6, Day 21 ([4]; Holm-Sidak, 0.05, comparator LK6 hydrogel group): Yes
Tumor volume, Significant? vs. PBS, Day 21 [4, 10]: Yes
Tumor volume, Significant? vs. PBS, Day 28 [4, 10]: Yes
Tumor volume, Significant? vs. PBS, Day 14 [4]: Significant tumor reduction
Tumor volume, Significant? vs. PBS, Day 14 ([4]; listed as Oxaliplatin): Yes
Tumor volume, Mean, Day 7 ([4]; day 7 post-tumor inoculation = day of first intratumoral injection (baseline), n=9): 61.938 mm^3
Tumor volume, Mean, Day 14 ([4]; day 14, intratumoral injection day 7: oxaliplatin 15 mg/kg or 3 44 mg/kg in Ac-LIVAGK-NH2 gel, n=9): 135.101 mm^3
Tumor volume, Mean, Day 21 ([4]; day 21, intratumoral injection day 7: oxaliplatin 15 mg/kg or 3 44 mg/kg in Ac-LIVAGK-NH2 gel, n=9): 96.493 mm^3
Tumor volume, Mean, Day 28 ([4]; day 28, injection day 7, re-injection day 21 with half the initial dose, n=9): 250.650 mm^3
Weight, Significant? vs. Ac-LK6-NH2, Day 20 [5, 9]: Yes
Weight, Significant? vs. Ac-LK6-NH2, Day 28 [5, 9]: Yes
Weight, Significant? vs. PBS, Day 20 [5, 10]: Yes
Weight, Significant? vs. PBS, Day 28 [5, 10]: Yes
Weight, Mean, Day 20 ([5]; body weight of BALB/c mice, day 20, injection day 7, n=9): 19.754
Weight, Mean, Day 28 ([5]; body weight of BALB/c mice, day 28, re-injection day 21 with half dose, n=9): 20.593
Weight, Diff of Means vs. Ac-LK6-NH2, Day 20 [5, 11]: 2.831
Weight, Diff of Means vs. Ac-LK6-NH2, Day 28 [5, 11]: 1.982
Weight, Diff of Means vs. PBS, Day 20 ([5]; comparator PBS group): 2.813
Weight, Diff of Means vs. PBS, Day 28 ([5]; comparator PBS group): 1.742
effect on the mice at the administered dose, compared to conjugate 3 ([5]; oxaliplatin 15 mg/kg intratumoral, confirmed by significant weight difference): significant deleterious effect

P1: alkyne-derived (propiolic acid functionalized) peptide; parent peptide Ac-LIVAGK-NH2 (also: propiolic acid alkyne functionalization, site not given here) [Compound P1]
concentration at which the peptide gelled in water [6]: 30000 µg/mL
